Measured values published in patent US20200325543A1, “DIAGNOSTIC METHOD” (TOLREMO THERAPEUTICS AG, priority 2017, published 2020).

Experiments:
Type in all cases: cell-based
[1] = test system: genes associated with stemness/EMT; assay: RNA-Seq / qPCR of genes associated with stemness/EMT in melanoma cells; conditions: A375-P cells, 1 μM PLX4720, 0.5 μM AZD6244 or both, 24 h, versus 0.01% DMSO
Protocol: Data shown represent mean of independent biological triplicates ±SEM. (E) Western blot analysis of the same experiment as shown in (D). […] P-ERK1/2 levels served as positive treatment controls. Total ERK1/2 levels served as loading control. (F) A375-P cells were treated with 1 μM PLX4720, 0.5 μM AZD6244 (MEK1/2 inhibitor) or 0.01% DMSO for the indicated times and SOX2 levels were assessed by Western blot analysis. […] (G) A375-P cells were treated with 1 μM PLX4720 (BRAFi), 0.5 μM AZD6244 (MEKi), a combination of both drugs or 0.01% DMSO for the indicated times and SOX2 levels were assessed by Western blot analysis. […] For all Western blots, individual time points were assessed in at least two independent experiments. Representative data is shown.

SOX2 = SOX2 levels by Western blot in A375-P cells; conditions: 1 μM PLX4720, 0.5 μM AZD6244 or both, indicated times, versus 0.01% DMSO
Protocol: (A) A375-P cells were treated with PLX4720 (BRAFi) or DMSO for 6 h, RNA was isolated and RNA-Seq was performed. […] Differentially expressed genes (DEGs) selected for pathway analysis are represented by red and blue dots depending on the direction of the transcriptional change (red genes are induced upon PLX4720, blue genes are repressed upon PLX4720). (B) Bar graphs showing the five top pathways with significant enrichment of the analyzed DEGs. Longer bars indicate stronger significance. (C) Top deregulated genes upon treatment with PLX4720 (left column). Top genes induced and repressed by PLX4720 are shown in separate lists. (D) Indicated cell lines were treated with 1 μM PLX4720 or 0.01% DMSO (0 h) for the indicated times and the expressional changes of selected genes associated with stemness/EMT were confirmed by qPCR. […] As key player in the sternness signature, SOX2 levels were assessed. […] (F) A375-P cells were treated with 1 μM PLX4720, 0.5 μM AZD6244 (MEK1/2 inhibitor) or 0.01% DMSO for the indicated times and SOX2 levels were assessed by Western blot analysis. […] (G) A375-P cells were treated with 1 μM PLX4720 (BRAFi), 0.5 μM AZD6244 (MEKi), a combination of both drugs or 0.01% DMSO for the indicated times and SOX2 levels were assessed by Western blot analysis. […] For all Western blots, individual time points were assessed in at least two independent experiments. […]

S6K and BAD = assay: Survival signaling by Western blot in A375-P/pTRIPZ cells; conditions: A375-P/pTRIPZ-control or -SOX2 cells, PLX4720 48 h
Protocol: (A) A375-P cells were transfected with 100 nM siRNA targeting SOX2 or a negative control siRNA. Cells were then treated with PLX4720 (BRAFi) or DMSO for 48 h. 2 h before harvesting, cells were pulsed with 3 uM EdU to label cycling cells. EdU-positive cells were detected using flow cytometry. Note that SOX2 knockdown has no effect on cell proliferation when BRAF is active (DMSO) but reduces the pool of drug-tolerant, cycling cells in the BRAFi condition. Representative data is shown. (B) Quantification of experiment (A). For each condition, percentage of cycling cells upon siRNA knockdown of SOX2 was normalized to the negative control siRNA. Data shown represent mean of independent biological triplicates ±SEM. (C) A375-P cells stably transduced with pTRIPZ-SOX2 vector were treated with the indicated concentrations of doxycycline for three days or with 1 μM PLX4720 (PLX) for 24 h. SOX2 overexpression was confirmed by Western blot analysis. Lamin A served as loading control. Individual concentrations were assessed in at least two independent experiments. Representative results are shown. […] EdU-positive cells were detected using flow cytometry. […] Cell viability was assessed by PrestoBlue assay and IC50 values were calculated. […] Survival signaling was assessed by Western blot. […]

Row | Structure (SMILES) | expressional changes of selected genes associated with stemness/EMT (qPCR) [1] | SOX2 levels (Western blot) (SOX2) | Survival signaling via S6K and BAD (Western blot) (S6K and BAD)
1 | Cn1cnc2c(F)c(Nc3ccc(Br)cc3Cl)c(C(=O)NOCCO)cc21 [AZD6244] | comparable effects on transcript levels | induce similar SOX2 levels | –
2 | CCCS(=O)(=O)Nc1ccc(F)c(C(=O)c2c[nH]c3ncc(Cl)cc23)c1F [PLX4720] | comparable effects on transcript levels | induce similar SOX2 levels | repressed
